Numbers after ± are expanded uncertainties.
Experiment: xn = mol fraction of the nth substance listed
Conditions: 101 kPa, Liquid

NC=O [formamide] + CCCCO
Conditions | speed of sound [m/s] | viscosity [mPa·s]
293.15 K, x1 = 0.1093 | 1302.3 ± 2.8 | 3.225 ± 0.072
293.15 K, x1 = 0.2057 | 1337.7 ± 2.9 | 3.446 ± 0.077
293.15 K, x1 = 0.3138 | 1377 ± 3 | 3.598 ± 0.08
293.15 K, x1 = 0.4104 | 1412 ± 3 | 3.696 ± 0.082
293.15 K, x1 = 0.5115 | 1448.4 ± 3.1 | 3.754 ± 0.083
293.15 K, x1 = 0.6124 | 1484.4 ± 3.1 | 3.777 ± 0.084
293.15 K, x1 = 0.7081 | 1518 ± 3.2 | 3.77 ± 0.084
293.15 K, x1 = 0.8123 | 1554 ± 3.2 | 3.744 ± 0.083
293.15 K, x1 = 0.9086 | 1586.4 ± 3.3 | 3.708 ± 0.082
298.15 K, x1 = 0.1093 | 1281.2 ± 2.8 | 2.81 ± 0.064
298.15 K, x1 = 0.2057 | 1315.3 ± 2.9 | 3.018 ± 0.068
298.15 K, x1 = 0.3138 | 1353.7 ± 2.9 | 3.181 ± 0.071
298.15 K, x1 = 0.4104 | 1388.3 ± 3 | 3.285 ± 0.073
298.15 K, x1 = 0.5115 | 1424.6 ± 3 | 3.352 ± 0.075
298.15 K, x1 = 0.6124 | 1461 ± 3.1 | 3.386 ± 0.076
298.15 K, x1 = 0.7081 | 1495.5 ± 3.1 | 3.389 ± 0.076
298.15 K, x1 = 0.8123 | 1533.1 ± 3.2 | 3.379 ± 0.076
298.15 K, x1 = 0.9086 | 1567.9 ± 3.2 | 3.355 ± 0.075
303.15 K, x1 = 0.1093 | 1261.5 ± 2.8 | 2.506 ± 0.057
303.15 K, x1 = 0.2057 | 1294.8 ± 2.8 | 2.693 ± 0.061
303.15 K, x1 = 0.3138 | 1332.6 ± 2.9 | 2.846 ± 0.064
303.15 K, x1 = 0.4104 | 1367.1 ± 2.9 | 2.947 ± 0.066
303.15 K, x1 = 0.5115 | 1403.4 ± 3 | 3.003 ± 0.068
303.15 K, x1 = 0.6124 | 1440.3 ± 3 | 3.032 ± 0.068
303.15 K, x1 = 0.7081 | 1475.4 ± 3.1 | 3.036 ± 0.068
303.15 K, x1 = 0.8123 | 1515.3 ± 3.2 | 3.019 ± 0.068
303.15 K, x1 = 0.9086 | 1552.5 ± 3.2 | 2.996 ± 0.067
308.15 K, x1 = 0.1093 | 1243.5 ± 2.7 | 2.202 ± 0.051
308.15 K, x1 = 0.2057 | 1275.6 ± 2.8 | 2.371 ± 0.054
308.15 K, x1 = 0.3138 | 1312.7 ± 2.9 | 2.516 ± 0.057
308.15 K, x1 = 0.4104 | 1347 ± 2.9 | 2.616 ± 0.059
308.15 K, x1 = 0.5115 | 1383.6 ± 3 | 2.676 ± 0.061
308.15 K, x1 = 0.6124 | 1420.5 ± 3 | 2.702 ± 0.061
308.15 K, x1 = 0.7081 | 1456.5 ± 3.1 | 2.705 ± 0.061
308.15 K, x1 = 0.8123 | 1497.9 ± 3.1 | 2.688 ± 0.061
308.15 K, x1 = 0.9086 | 1537.2 ± 3.2 | 2.671 ± 0.06
313.15 K, x1 = 0.1093 | 1223.7 ± 2.7 | 1.92 ± 0.044
313.15 K, x1 = 0.2057 | 1255.5 ± 2.8 | 2.081 ± 0.048
313.15 K, x1 = 0.3138 | 1292.1 ± 2.8 | 2.224 ± 0.051
313.15 K, x1 = 0.4104 | 1326 ± 2.9 | 2.324 ± 0.053
313.15 K, x1 = 0.5115 | 1362.6 ± 2.9 | 2.388 ± 0.055
313.15 K, x1 = 0.6124 | 1399.8 ± 3 | 2.418 ± 0.055
313.15 K, x1 = 0.7081 | 1437 ± 3 | 2.426 ± 0.055
313.15 K, x1 = 0.8123 | 1479.9 ± 3.1 | 2.423 ± 0.055
313.15 K, x1 = 0.9086 | 1521.9 ± 3.2 | 2.413 ± 0.055
318.15 K, x1 = 0.1093 | 1203.3 ± 2.7 | 1.725 ± 0.04
318.15 K, x1 = 0.2057 | 1234.5 ± 2.7 | 1.874 ± 0.044
318.15 K, x1 = 0.3138 | 1270.8 ± 2.8 | 2.008 ± 0.046
318.15 K, x1 = 0.4104 | 1305 ± 2.8 | 2.106 ± 0.049
318.15 K, x1 = 0.5115 | 1341.3 ± 2.9 | 2.167 ± 0.05
318.15 K, x1 = 0.6124 | 1379.1 ± 3 | 2.204 ± 0.051
318.15 K, x1 = 0.7081 | 1417.5 ± 3 | 2.217 ± 0.051
318.15 K, x1 = 0.8123 | 1461.9 ± 3.1 | 2.216 ± 0.051
318.15 K, x1 = 0.9086 | 1506.6 ± 3.2 | 2.216 ± 0.051

NC=O [formamide] + CCC(C)O
Conditions | speed of sound [m/s] | viscosity [mPa·s]
293.15 K, x1 = 0.1043 | 1264.1 ± 2.8 | 4.14 ± 0.42
293.15 K, x1 = 0.2043 | 1295.8 ± 2.8 | 4.08 ± 0.42
293.15 K, x1 = 0.3056 | 1329.1 ± 2.9 | 4.046 ± 0.41
293.15 K, x1 = 0.4083 | 1364.5 ± 2.9 | 4.041 ± 0.41
293.15 K, x1 = 0.5093 | 1401.3 ± 3 | 4.026 ± 0.41
293.15 K, x1 = 0.6063 | 1438.8 ± 3.1 | 3.99 ± 0.41
293.15 K, x1 = 0.7068 | 1480.1 ± 3.1 | 3.929 ± 0.4
293.15 K, x1 = 0.8042 | 1522.5 ± 3.2 | 3.859 ± 0.39
293.15 K, x1 = 0.9024 | 1568 ± 3.2 | 3.77 ± 0.38
298.15 K, x1 = 0.1043 | 1243.5 ± 2.8 | 3.044 ± 0.094
298.15 K, x1 = 0.2043 | 1274.8 ± 2.8 | 3.064 ± 0.094
298.15 K, x1 = 0.3056 | 1308 ± 2.9 | 3.113 ± 0.095
298.15 K, x1 = 0.4083 | 1343.4 ± 2.9 | 3.19 ± 0.096
298.15 K, x1 = 0.5093 | 1380.4 ± 3 | 3.261 ± 0.097
298.15 K, x1 = 0.6063 | 1418.1 ± 3 | 3.31 ± 0.098
298.15 K, x1 = 0.7068 | 1459.9 ± 3.1 | 3.338 ± 0.098
298.15 K, x1 = 0.8042 | 1503.4 ± 3.1 | 3.351 ± 0.098
298.15 K, x1 = 0.9024 | 1550.5 ± 3.2 | 3.348 ± 0.098
303.15 K, x1 = 0.1043 | 1225 ± 2.7 | 2.516 ± 0.076
303.15 K, x1 = 0.2043 | 1256.1 ± 2.8 | 2.551 ± 0.077
303.15 K, x1 = 0.3056 | 1289.2 ± 2.8 | 2.617 ± 0.079
303.15 K, x1 = 0.4083 | 1324.7 ± 2.9 | 2.713 ± 0.081
303.15 K, x1 = 0.5093 | 1361.9 ± 2.9 | 2.8 ± 0.083
303.15 K, x1 = 0.6063 | 1400 ± 3 | 2.869 ± 0.085
303.15 K, x1 = 0.7068 | 1442.6 ± 3.1 | 2.918 ± 0.086
303.15 K, x1 = 0.8042 | 1487.3 ± 3.1 | 2.949 ± 0.087
303.15 K, x1 = 0.9024 | 1536 ± 3.2 | 2.966 ± 0.087
308.15 K, x1 = 0.1043 | 1204.5 ± 2.7 | 2.126 ± 0.065
308.15 K, x1 = 0.2043 | 1235.7 ± 2.8 | 2.167 ± 0.066
308.15 K, x1 = 0.3056 | 1268.9 ± 2.8 | 2.239 ± 0.068
308.15 K, x1 = 0.4083 | 1304.5 ± 2.9 | 2.339 ± 0.07
308.15 K, x1 = 0.5093 | 1341.9 ± 2.9 | 2.435 ± 0.073
308.15 K, x1 = 0.6063 | 1380.6 ± 3 | 2.512 ± 0.075
308.15 K, x1 = 0.7068 | 1424.4 ± 3 | 2.571 ± 0.076
308.15 K, x1 = 0.8042 | 1470.5 ± 3.1 | 2.611 ± 0.077
308.15 K, x1 = 0.9024 | 1521 ± 3.2 | 2.639 ± 0.078
313.15 K, x1 = 0.1043 | 1185.6 ± 2.7 | 1.802 ± 0.056
313.15 K, x1 = 0.2043 | 1216.2 ± 2.7 | 1.848 ± 0.057
313.15 K, x1 = 0.3056 | 1249.3 ± 2.8 | 1.927 ± 0.059
313.15 K, x1 = 0.4083 | 1285.3 ± 2.8 | 2.035 ± 0.062
313.15 K, x1 = 0.5093 | 1323.1 ± 2.9 | 2.138 ± 0.064
313.15 K, x1 = 0.6063 | 1362.1 ± 2.9 | 2.224 ± 0.067
313.15 K, x1 = 0.7068 | 1406.8 ± 3 | 2.291 ± 0.068
313.15 K, x1 = 0.8042 | 1453.9 ± 3.1 | 2.338 ± 0.069
313.15 K, x1 = 0.9024 | 1506.1 ± 3.2 | 2.375 ± 0.071
318.15 K, x1 = 0.1043 | 1167.6 ± 2.7 | 1.543 ± 0.048
318.15 K, x1 = 0.2043 | 1197.6 ± 2.7 | 1.593 ± 0.049
318.15 K, x1 = 0.3056 | 1230.7 ± 2.7 | 1.677 ± 0.052
318.15 K, x1 = 0.4083 | 1266.9 ± 2.8 | 1.791 ± 0.055
318.15 K, x1 = 0.5093 | 1305 ± 2.9 | 1.903 ± 0.058
318.15 K, x1 = 0.6063 | 1344.2 ± 2.9 | 1.998 ± 0.06
318.15 K, x1 = 0.7068 | 1389.5 ± 3 | 2.072 ± 0.062
318.15 K, x1 = 0.8042 | 1437.6 ± 3 | 2.129 ± 0.064
318.15 K, x1 = 0.9024 | 1491.3 ± 3.1 | 2.175 ± 0.065
